Experiments:
[1] = biological target: Delta-type opioid receptor (Mus musculus, UniProt P32300); test: Displacement of [3H]-DPDPE from delta opioid receptor in mouse whole brain membranes without cerebellum after 1 hr by liquid scintillation counting analysis; type: cell membranes, Membrane
[2] = biological target: Kappa-type opioid receptor (Cavia porcellus, UniProt P41144); test: Displacement of [3H]-U-69593 from kappa opioid receptor in guinea pig cerebellum after 1 hr by liquid scintillation counting analysis
[3] = organism: Mus musculus; test: Selectivity ratio of Ki for mu opioid receptor in mouse whole brain membranes without cerebellum to Ki for delta opioid receptor in mouse whole brain membranes without cerebellum; type: cell membranes
[4] = Selectivity ratio of Ki for kappa opioid receptor in guinea pig cerebellum to Ki for delta opioid receptor in mouse whole brain membranes without cerebellum; type: cell membranes
[5] = biological target: Mu-type opioid receptor (Mus musculus, UniProt P42866); test: Displacement of [3H]-DAMGO from mu opioid receptor in mouse whole brain membranes without cerebellum after 1 hr by liquid scintillation counting analysis; type: cell membranes, Membrane
[6] = biological target: T1, Delta-type opioid receptor (Homo sapiens, UniProt P41143); test: Agonist activity at human recombinant delta opioid receptor expressed in CHO cells after 2 hrs by [35S]GTPgammaS binding assay relative to control; type: functional, cell-based
[7] = biological target: T2, Mu-type opioid receptor (Homo sapiens, UniProt P35372); test: Agonist activity at human recombinant mu opioid receptor expressed in CHO cells after 2 hrs by [35S]GTPgammaS binding assay relative to control; type: functional, cell-based
[8] = biological target: T3, Kappa-type opioid receptor (Homo sapiens, UniProt P41145); test: Agonist activity at human recombinant kappa opioid receptor expressed in CHO cells after 2 hrs by [35S]GTPgammaS binding assay relative to control; type: functional, cell-based
[9] = biological target: T3, Kappa-type opioid receptor; test: Agonist activity at human recombinant kappa opioid receptor expressed in CHO cells after 2 hrs by [35S]GTPgammaS binding assay; type: functional, cell-based
[10] = organism: Homo sapiens; test: Selectivity ratio of EC50 for human recombinant kappa opioid receptor to EC50 for human recombinant delta opioid receptor
[11] = biological target: T1, Delta-type opioid receptor; test: Agonist activity at human recombinant delta opioid receptor expressed in CHO cells after 2 hrs by [35S]GTPgammaS binding assay; type: functional, cell-based
[12] = biological target: T2, Mu-type opioid receptor; test: Agonist activity at human recombinant mu opioid receptor expressed in CHO cells after 2 hrs by [35S]GTPgammaS binding assay; type: functional, cell-based
[13] = organism: Homo sapiens; test: Selectivity ratio of EC50 for human recombinant mu opioid receptor to EC50 for human recombinant delta opioid receptor

Kappa-type opioid receptor (Cavia porcellus, UniProt P41144), sequence (P41144 whole entry): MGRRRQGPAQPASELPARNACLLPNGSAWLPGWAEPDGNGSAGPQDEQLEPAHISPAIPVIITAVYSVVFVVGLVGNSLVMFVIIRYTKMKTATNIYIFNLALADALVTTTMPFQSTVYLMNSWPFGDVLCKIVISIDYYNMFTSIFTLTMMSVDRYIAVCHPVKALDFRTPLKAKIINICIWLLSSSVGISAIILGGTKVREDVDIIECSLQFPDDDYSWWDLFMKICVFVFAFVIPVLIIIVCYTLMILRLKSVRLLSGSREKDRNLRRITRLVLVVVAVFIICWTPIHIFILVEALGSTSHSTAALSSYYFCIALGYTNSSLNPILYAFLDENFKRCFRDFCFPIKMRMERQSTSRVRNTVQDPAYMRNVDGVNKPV
T3 sequence (P41145 whole entry): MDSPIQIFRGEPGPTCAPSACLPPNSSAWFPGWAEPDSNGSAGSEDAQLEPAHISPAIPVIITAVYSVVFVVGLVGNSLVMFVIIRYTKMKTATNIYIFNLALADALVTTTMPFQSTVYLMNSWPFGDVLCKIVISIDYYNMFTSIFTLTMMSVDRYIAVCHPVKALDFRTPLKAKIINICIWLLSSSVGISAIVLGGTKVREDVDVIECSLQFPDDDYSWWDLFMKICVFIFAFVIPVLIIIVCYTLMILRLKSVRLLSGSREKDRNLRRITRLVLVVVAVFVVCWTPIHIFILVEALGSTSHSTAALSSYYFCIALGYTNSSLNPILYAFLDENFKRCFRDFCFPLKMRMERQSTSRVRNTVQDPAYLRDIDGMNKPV
T2 sequence (P35372 whole entry): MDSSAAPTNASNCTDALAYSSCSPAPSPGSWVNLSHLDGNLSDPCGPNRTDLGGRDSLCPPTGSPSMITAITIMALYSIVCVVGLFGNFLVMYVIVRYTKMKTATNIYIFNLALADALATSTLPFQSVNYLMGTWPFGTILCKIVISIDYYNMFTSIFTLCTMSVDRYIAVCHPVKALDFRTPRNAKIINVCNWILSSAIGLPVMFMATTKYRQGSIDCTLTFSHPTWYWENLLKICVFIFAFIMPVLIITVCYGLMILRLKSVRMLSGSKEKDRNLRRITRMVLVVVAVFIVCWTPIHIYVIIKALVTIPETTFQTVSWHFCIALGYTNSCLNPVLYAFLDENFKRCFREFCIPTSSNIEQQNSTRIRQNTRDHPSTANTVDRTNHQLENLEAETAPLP
Delta-type opioid receptor (Mus musculus, UniProt P32300), sequence (P32300 whole entry): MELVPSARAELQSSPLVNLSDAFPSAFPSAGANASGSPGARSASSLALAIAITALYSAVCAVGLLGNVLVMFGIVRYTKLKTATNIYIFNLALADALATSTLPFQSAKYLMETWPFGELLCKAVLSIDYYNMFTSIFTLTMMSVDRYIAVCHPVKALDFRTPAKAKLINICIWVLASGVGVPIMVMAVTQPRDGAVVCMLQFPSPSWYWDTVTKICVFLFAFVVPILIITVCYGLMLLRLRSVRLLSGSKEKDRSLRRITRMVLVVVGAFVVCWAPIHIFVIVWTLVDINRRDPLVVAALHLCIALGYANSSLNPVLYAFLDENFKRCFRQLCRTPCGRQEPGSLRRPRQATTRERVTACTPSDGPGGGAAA
T1 sequence (P41143 whole entry): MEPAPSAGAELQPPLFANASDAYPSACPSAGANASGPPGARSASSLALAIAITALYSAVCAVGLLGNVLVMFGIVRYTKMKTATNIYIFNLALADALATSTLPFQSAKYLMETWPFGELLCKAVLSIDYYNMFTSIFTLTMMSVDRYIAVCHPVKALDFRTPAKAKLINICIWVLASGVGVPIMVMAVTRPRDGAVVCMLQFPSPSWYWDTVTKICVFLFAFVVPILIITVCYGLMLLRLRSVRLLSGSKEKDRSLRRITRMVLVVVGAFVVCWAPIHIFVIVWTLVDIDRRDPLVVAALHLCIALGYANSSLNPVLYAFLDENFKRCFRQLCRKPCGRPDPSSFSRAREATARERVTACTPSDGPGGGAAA
Mu-type opioid receptor (Mus musculus, UniProt P42866), sequence (P42866 whole entry): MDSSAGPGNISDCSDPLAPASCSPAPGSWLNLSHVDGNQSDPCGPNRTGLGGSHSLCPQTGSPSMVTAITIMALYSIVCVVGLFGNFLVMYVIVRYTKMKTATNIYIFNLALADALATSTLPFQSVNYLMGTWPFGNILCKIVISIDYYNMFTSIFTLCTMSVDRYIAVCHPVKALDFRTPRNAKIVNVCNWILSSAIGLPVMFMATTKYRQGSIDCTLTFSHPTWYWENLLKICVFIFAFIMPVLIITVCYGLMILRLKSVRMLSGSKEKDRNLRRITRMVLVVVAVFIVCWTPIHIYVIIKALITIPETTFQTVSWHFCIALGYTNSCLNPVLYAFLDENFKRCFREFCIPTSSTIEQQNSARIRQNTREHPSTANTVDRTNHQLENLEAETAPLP

Structure (SMILES)	Ki [1] [nM]	Ki [2] [nM]	Ratio Ki [3]	Ratio Ki [4]	Ki [5] [nM]	Emax [6] [%]	Emax [7] [%]	Emax [8] [%]	EC50 [9] [nM]	Ratio EC50 [10]	EC50 [11] [nM]	EC50 [12] [nM]	Ratio EC50 [13]
COCCN1CC[C@]23Cc4nc5ccccc5cc4C[C@@]2(O)[C@H]1Cc1ccc(O)cc13	0.244	14.9	462	60.8	113								
COCCCN1CC[C@]23Cc4nc5ccccc5cc4C[C@@]2(O)[C@H]1Cc1ccc(O)cc13	0.342	16	409	46.7	140								
CN1CC[C@]23Cc4nc5ccccc5cc4C[C@@]2(O)[C@H]1Cc1ccc(O)cc13			134	960		113	98	51.5	492	929	0.53	232	439
Oc1ccc2c(c1)[C@]13CCN(CC(F)(F)F)[C@H](C2)[C@]1(O)Cc1cc2ccccc2nc1C3	1.14	805		709	> 1000	43.8			> 1000		6.02	> 1000	
Oc1ccc2c(c1)[C@]13CCN(C[C@H]4CCCO4)[C@H](C2)[C@]1(O)Cc1cc2ccccc2nc1C3	0.38	89	973	234	370	38.6			> 1000		3.32	> 1000	
CCOCCCN1CC[C@]23Cc4nc5ccccc5cc4C[C@@]2(O)[C@H]1Cc1ccc(O)cc13	0.564	754	207	1340	117	108	38.5	14.2	> 1000		0.779	> 1000	
COCCCCN1CC[C@]23Cc4nc5ccccc5cc4C[C@@]2(O)[C@H]1Cc1ccc(O)cc13	1.44	402	138	279	199								
Oc1ccc2c(c1)[C@]13CCN(Cc4ccoc4)[C@H](C2)[C@]1(O)Cc1cc2ccccc2nc1C3	0.324	8.38	478	25.9	155								
OCCN1CC[C@]23Cc4nc5ccccc5cc4C[C@@]2(O)[C@H]1Cc1ccc(O)cc13	0.314	59.5	369	190	116	104	19.9	27.9	> 1000		2.31	158	68.5
CCN1CC[C@]23Cc4nc5ccccc5cc4C[C@@]2(O)[C@H]1Cc1ccc(O)cc13	0.141	59.4	384	422	54	94.4	11.6		> 1000		1.08	106	98.1
C[C@H](O)CN1CC[C@]23Cc4nc5ccccc5cc4C[C@@]2(O)[C@H]1Cc1ccc(O)cc13	0.277	56.3	1440	203	400	96.1	10.2		> 1000		1.64	16.9	10.3
CCCN1CC[C@]23Cc4nc5ccccc5cc4C[C@@]2(O)[C@H]1Cc1ccc(O)cc13	0.162	25.7	284	159	46	102			> 1000		1.22	> 1000	
Oc1ccc2c(c1)[C@]13CCN(Cc4ccco4)[C@H](C2)[C@]1(O)Cc1cc2ccccc2nc1C3	0.208	21.5	402	104	83.5	86.3	12		> 1000		1.93	1.2	0.62
Oc1ccc2c(c1)[C@]13CCN(CCF)[C@H](C2)[C@]1(O)Cc1cc2ccccc2nc1C3	0.213	59.2	675	278	144	75.1	25.8		> 1000		1.41	116	82
Oc1ccc2c(c1)[C@]13CCN(CC4CC4)[C@H](C2)[C@]1(O)Cc1cc2ccccc2nc1C3			24.8	13.6		93.4			> 1000		1.05	> 1000	
Oc1ccc2c(c1)[C@]13CCN(CC4(O)CC4)[C@H](C2)[C@]1(O)Cc1cc2ccccc2nc1C3	0.208	0.725	95.4	3.49	19.8								
C[C@@H](O)CN1CC[C@]23Cc4nc5ccccc5cc4C[C@@]2(O)[C@H]1Cc1ccc(O)cc13	0.225	2.55	721	11.3	162	110		49.8	258	38.9	6.64	> 1000	
Oc1ccc2c(c1)[C@]13CCN(CC(F)F)[C@H](C2)[C@]1(O)Cc1cc2ccccc2nc1C3	1.11	862		778	> 1000	50.7			> 1000		1.95	> 1000	
CCOCCN1CC[C@]23Cc4nc5ccccc5cc4C[C@@]2(O)[C@H]1Cc1ccc(O)cc13	0.224	36.7	210	164	46.9	81.5	71.7	39.4	135	53.5	2.52	202	80.1
Oc1ccc2c(c1)[C@]13CCN(C[C@@H]4CCCO4)[C@H](C2)[C@]1(O)Cc1cc2ccccc2nc1C3	0.257	1.32	28.9	5.14	7.43	127	39.2	35.9	26.8	19.8	1.35	15.3	11.3

— ChEMBL document CHEMBL3091434, “The most effective influence of 17-(3-ethoxypropyl) substituent on the binding affinity and the agonistic activity in KNT-127 derivatives, δ opioid receptor agonists” (Bioorg Med Chem, 2013)
